# Reference: ChEMBL document CHEMBL1201862, “PubChem BioAssay data set” (2004)
# The source made the active and inactive calls.
# Legend:
# [1] = molecular target: T1, Oxysterols receptor LXR-beta (Homo sapiens, UniProt P55055); assay type: functional, cell-based;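 further: agonist activity at LXR measured by a cell-based luminescence readout across a dose range, run as a counterscreen for daf-12 agonists; HEK293 cells with Gal4-LXR fusion and GAL4-driven luciferase reporter; potency for activation of Gal4-LXR reporter so compounds are agonists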
# T1 sequence (P55055 whole entry): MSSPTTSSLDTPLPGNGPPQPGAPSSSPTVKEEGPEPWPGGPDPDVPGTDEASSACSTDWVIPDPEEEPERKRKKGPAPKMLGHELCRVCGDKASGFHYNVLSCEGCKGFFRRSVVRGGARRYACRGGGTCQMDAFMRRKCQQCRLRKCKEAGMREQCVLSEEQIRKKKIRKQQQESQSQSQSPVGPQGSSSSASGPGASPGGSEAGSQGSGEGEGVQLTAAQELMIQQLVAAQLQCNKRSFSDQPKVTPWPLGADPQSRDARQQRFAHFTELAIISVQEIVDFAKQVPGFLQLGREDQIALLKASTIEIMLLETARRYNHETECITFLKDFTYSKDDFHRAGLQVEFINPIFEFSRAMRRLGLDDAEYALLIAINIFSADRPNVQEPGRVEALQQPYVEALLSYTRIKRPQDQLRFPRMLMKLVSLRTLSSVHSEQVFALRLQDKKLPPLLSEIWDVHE
# Nonstructural protein 1 = Nonstructural protein 1 (Influenza A virus, UniProt Q194T2); assay type: functional, Influenza A virus (A/California/07/2009(H1N1))
# [2] = molecular target: T2, Short transient receptor potential channel 4 (Mus musculus, UniProt Q9QUQ5); assay: mouse TRPC4 channel activators, dose response, cell-based, HEK293 TRPC4/mu-opioid, Fluo-4 calcium (AID 434937); assay type: functional
# T2 sequence (Q9QUQ5 whole entry): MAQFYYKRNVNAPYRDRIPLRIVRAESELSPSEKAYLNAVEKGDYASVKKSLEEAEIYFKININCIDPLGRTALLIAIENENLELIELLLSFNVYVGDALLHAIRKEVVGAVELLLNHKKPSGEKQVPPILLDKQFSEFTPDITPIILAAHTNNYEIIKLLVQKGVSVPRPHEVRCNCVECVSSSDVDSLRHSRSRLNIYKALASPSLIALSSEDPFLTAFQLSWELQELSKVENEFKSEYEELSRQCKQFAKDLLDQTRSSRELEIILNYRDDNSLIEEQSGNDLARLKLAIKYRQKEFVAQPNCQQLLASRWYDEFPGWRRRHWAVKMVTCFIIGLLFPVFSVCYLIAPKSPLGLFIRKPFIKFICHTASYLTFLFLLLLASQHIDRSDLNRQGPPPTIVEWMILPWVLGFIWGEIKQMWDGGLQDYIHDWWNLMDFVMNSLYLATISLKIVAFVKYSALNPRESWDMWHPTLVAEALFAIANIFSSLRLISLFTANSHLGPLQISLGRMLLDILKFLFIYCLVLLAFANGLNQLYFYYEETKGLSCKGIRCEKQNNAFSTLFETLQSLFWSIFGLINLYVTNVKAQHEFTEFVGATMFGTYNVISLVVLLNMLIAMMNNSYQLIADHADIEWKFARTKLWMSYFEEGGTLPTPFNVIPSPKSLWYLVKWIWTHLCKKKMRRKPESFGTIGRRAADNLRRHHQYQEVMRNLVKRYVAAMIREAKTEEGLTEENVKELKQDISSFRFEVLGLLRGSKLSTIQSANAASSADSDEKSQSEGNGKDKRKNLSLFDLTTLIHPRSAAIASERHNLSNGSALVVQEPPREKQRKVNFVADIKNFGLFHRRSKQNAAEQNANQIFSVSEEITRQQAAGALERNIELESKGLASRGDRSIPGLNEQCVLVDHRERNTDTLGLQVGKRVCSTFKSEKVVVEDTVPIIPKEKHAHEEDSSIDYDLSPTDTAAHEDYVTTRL
# [3] = human group III sPLA2 inhibitors, dose response, biochemical, QFRET, IC50 (AID 743457);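 further: green fluorescence rise as the enzyme cleaves BODIPY PC-A2 in liposomes; potency for inhibition of the enzyme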
# [4] = molecular target: T3, Probable nicotinate-nucleotide adenylyltransferase (Staphylococcus aureus (strain N315), UniProt P65502); assay type: functional, Staphylococcus aureus subsp. aureus N315;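 on IC50 Mean: confirmatory dose-response retesting of NadD inhibitor hits first found in an ultra-high-throughput screen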
# [5] = molecular target: T3, Probable nicotinate-nucleotide adenylyltransferase; assay type: functional, Staphylococcus aureus subsp. aureus N315; conditions: read-out: IC50_Mean
# [6] = Counterscreen for inhibitors of Trypanosoma brucei methionyl tRNA synthetase (MetRS): Luminescence-based cell-based high throughput dose response assay to identify compounds that are cytotoxic to Jurkat human T lymphocyte cells.; assay type: functional
# [7] = molecular target: T4, Methionyl-tRNA synthetase, putative (Trypanosoma brucei brucei, UniProt Q38C91); assay type: functional, Trypanosoma brucei brucei strain 927/4 GUTat10.1
# T4 sequence (Q38C91 whole entry): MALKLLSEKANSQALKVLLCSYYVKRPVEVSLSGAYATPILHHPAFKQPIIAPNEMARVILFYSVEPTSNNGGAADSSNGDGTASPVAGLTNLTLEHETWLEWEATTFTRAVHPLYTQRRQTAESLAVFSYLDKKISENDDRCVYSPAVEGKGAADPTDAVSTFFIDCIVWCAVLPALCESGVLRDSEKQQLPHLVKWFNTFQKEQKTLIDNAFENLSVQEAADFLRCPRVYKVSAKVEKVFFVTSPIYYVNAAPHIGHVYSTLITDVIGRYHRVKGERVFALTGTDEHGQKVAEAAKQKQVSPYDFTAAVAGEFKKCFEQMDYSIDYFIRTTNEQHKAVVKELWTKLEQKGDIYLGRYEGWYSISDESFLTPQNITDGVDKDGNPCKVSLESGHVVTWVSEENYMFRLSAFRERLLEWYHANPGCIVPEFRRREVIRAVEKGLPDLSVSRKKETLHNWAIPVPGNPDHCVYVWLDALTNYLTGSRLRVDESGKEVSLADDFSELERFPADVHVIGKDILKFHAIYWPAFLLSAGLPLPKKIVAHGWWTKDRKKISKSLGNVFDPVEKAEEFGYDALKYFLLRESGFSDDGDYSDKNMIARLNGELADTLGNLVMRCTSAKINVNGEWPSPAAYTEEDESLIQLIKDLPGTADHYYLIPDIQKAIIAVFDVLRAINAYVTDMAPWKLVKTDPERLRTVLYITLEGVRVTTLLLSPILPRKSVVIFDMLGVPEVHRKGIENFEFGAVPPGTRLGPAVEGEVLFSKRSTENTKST
# [8] = molecular target: T4, Methionyl-tRNA synthetase, putative; assay type: functional, Trypanosoma brucei brucei strain 927/4 GUTat10.1; remark: listed apart in the source
# [9] = inhibitors of intracellular T. cruzi replication, confirmation, NIH3T3 host cells, beta-gal luminescence (AID 2044); assay type: functional, cell-based;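 further: intracellular parasites grown in NIH/3T3 mouse fibroblasts as host cells; luminescent beta-galactosidase reporter signal from transgenic T. cruzi replicating inside host cells; inhibitors lower the luminescence signal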
# [10] = cytotoxicity toward NIH3T3 fibroblasts, dose response, counter-screen, cell-based, ATP luminescence, mouse fibroblasts (AID 2010); assay type: functional;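 further: cells exposed to compound for about 90 hours before reading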
# [11] = MDA-MB-231 cell growth inhibition, dose response, cytotoxicity control for RAD54 inhibitor project, CellTiter-Glo luminescence, cherry-pick (AID 651692); assay type: functional, cell-based
# [12] = molecular target: T5, DNA repair protein RAD52 homolog (Homo sapiens, UniProt P43351); assay type: functional, biochemical
# T5 sequence (P43351 whole entry): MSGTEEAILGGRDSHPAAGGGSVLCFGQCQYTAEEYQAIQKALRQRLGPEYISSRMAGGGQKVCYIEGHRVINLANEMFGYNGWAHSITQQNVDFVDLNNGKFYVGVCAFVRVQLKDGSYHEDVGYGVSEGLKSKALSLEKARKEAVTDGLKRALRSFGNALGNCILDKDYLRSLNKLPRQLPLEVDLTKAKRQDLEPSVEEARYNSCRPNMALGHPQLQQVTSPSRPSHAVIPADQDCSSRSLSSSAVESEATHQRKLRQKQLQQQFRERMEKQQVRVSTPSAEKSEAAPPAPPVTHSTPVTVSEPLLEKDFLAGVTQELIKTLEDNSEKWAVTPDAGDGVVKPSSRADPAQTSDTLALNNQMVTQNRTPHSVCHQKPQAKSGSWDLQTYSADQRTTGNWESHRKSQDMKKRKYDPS
# H4 = assay: Luminescence Cell-Based Dose Response HTS to Identify Activators of 5'UTR Stem-Loop Driven Prion Protein mRNA Translation in H4 Neuroglioblastoma Cells. [Related pubchem assays: 1829 (Project Summary), 1814 (Primary HTS)]; assay type: functional; conditions: Homo sapiens
# [13] = Luminescence Cell-Based Dose Response HTS to Identify Activators of Luciferase Translation or Activity in H4 […] Cells. [Related pubchem assays: 1829 (Project Summary), 1814 (Primary HTS)]; assay type: functional
# [14] = microbe, parasite or virus in culture; assay type: functional; conditions: Mycobacterium tuberculosis
# [15] = Luminescence Cell-Based Dose Confirmation HTS to Identify Activators of 5'UTR Stem-Loop Driven Alpha-Synuclein mRNA Translation in H4 Neuroglioblastoma Cells. [Related pubchem assays: 1829 (Project Summary), 1814 (Primary HTS)]; assay type: functional
# [16] = molecular target: T6, DNA repair and recombination protein RAD54-like (Homo sapiens, UniProt Q92698); assay: inhibitors of human RAD54 branch migration, confirmation, biochemical, fluorescence, cherry-picked samples, dose series (AID 651657); assay type: functional
# T6 sequence (Q92698 whole entry): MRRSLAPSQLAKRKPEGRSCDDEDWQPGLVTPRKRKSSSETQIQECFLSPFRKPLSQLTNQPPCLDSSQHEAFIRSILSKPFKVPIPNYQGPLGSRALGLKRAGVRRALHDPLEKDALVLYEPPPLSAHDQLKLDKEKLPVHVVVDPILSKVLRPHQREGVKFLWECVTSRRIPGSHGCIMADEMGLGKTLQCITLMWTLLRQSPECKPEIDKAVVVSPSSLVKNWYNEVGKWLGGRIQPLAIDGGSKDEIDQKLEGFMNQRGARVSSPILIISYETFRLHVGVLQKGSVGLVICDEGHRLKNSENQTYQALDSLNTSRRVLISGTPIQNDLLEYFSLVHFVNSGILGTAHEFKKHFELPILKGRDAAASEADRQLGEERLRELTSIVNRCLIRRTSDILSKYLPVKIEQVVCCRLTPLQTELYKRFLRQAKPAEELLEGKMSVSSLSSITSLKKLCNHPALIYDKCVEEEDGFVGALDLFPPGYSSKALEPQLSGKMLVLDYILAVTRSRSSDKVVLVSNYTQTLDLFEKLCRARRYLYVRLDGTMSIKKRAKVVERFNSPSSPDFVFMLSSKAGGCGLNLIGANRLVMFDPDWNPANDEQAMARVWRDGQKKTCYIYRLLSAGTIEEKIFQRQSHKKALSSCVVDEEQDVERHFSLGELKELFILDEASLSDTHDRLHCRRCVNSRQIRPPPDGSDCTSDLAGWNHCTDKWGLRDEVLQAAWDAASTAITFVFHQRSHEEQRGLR
# [17] = molecular target: 5-hydroxytryptamine receptor 2A (Mus musculus, UniProt P35363); assay type: functional, cell-based;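 further: CHO-K1 cells with tagged receptor and beta-arrestin; agonist potency measured as compound-induced activation of the receptor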
# Mu-type opioid receptor = Mu-type opioid receptor (Homo sapiens, UniProt P35372); assay type: functional, cell-based;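 further: U2OS cells with beta-arrestin recruitment to OPRM1 by beta-gal complementation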
# cells = assay type: functional
# [18] = HepG2 cell cytotoxicity, dose response, cytotoxicity control for non-replicating M. tuberculosis project (AID 489018); assay type: functional; conditions: Mycobacterium tuberculosis
# [19] = Luminescence Cell-Based Dose Retest to Confirm Inhibitors of Cancer Stem Cells. [Related pubchem assays (depositor defined):AID2717, AID2721]; assay type: functional; conditions: Homo sapiens
# [20] = Vero E6 cell cytotoxicity, dose response, cytotoxicity control for non-replicating M. tuberculosis project, secondary assay (AID 492998); assay type: functional, VeroE6; conditions: Vero C1008
# [21] = THP-1 cell cytotoxicity, dose response, cytotoxicity control for non-replicating M. tuberculosis project (AID 489025); assay type: functional
# T3 sequence (P65502 whole entry): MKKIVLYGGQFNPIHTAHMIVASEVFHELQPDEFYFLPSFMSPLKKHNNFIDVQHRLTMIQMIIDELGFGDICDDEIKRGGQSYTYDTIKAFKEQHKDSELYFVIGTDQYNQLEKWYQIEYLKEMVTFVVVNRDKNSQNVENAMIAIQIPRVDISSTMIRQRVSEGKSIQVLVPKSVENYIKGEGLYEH
# 5-hydroxytryptamine receptor 2A, sequence (P35363 whole entry): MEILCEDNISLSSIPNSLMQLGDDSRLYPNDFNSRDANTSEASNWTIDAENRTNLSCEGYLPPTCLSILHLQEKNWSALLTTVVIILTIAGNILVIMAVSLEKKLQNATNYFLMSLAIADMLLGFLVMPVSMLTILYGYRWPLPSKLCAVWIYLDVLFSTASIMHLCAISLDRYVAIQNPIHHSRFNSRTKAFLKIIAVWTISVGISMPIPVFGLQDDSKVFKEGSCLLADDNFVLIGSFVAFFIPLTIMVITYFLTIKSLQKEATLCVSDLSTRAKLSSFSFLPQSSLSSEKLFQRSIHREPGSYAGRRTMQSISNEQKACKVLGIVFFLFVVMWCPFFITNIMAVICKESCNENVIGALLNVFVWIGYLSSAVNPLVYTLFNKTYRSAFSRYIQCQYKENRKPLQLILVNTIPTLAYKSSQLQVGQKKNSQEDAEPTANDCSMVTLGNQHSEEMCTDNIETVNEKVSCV
# Mu-type opioid receptor, sequence (P35372 whole entry): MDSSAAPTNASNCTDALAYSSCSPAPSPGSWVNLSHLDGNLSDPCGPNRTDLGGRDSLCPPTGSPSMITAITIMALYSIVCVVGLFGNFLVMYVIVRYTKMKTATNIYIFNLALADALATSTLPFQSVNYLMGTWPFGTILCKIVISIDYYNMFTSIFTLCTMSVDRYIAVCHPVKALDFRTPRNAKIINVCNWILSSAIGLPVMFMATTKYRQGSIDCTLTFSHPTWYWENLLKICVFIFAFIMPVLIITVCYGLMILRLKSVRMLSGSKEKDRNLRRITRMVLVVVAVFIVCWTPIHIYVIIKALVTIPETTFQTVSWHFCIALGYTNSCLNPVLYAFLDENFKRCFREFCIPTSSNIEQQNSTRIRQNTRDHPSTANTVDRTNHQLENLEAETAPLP
# Nonstructural protein 1, sequence (Q194T2 whole entry): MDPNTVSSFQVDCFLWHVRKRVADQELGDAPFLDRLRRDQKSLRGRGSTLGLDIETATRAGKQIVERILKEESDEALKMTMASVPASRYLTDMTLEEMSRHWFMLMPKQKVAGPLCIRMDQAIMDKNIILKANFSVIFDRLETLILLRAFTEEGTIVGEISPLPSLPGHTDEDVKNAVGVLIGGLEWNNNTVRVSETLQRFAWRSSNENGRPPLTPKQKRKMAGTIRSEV
compound,measurement,setting,value
Clc1ccccc1Nc1nc2ccccc2o1,EC50,[1],> 67.6 µM (inactive)
c1ccc(CSc2ccc(-c3ccccn3)nn2)nc1,IC50,Nonstructural protein 1,4.94 µM (active)
same,EC50,[1],> 67.5 µM (inactive)
COc1ccc(C(=O)NC(=S)NNC(=O)c2c(-c3ccccc3)noc2C)cc1,EC50,[2],3.76 µM (active)
same,IC50,[3],24.2 µM (inactive)
Cc1ccc(-c2cc(-c3ccc(C)o3)nc(N)c2C#N)cc1,IC50,[4],1.62 µM (active)
same,IC50,[5],2.43 µM (active)
Cc1cc2c(c(=O)n1CC1CCCO1)C(c1ccc3c(c1)OCO3)C(C#N)=C(N)O2 (stereo not drawn),IC50,[6],83.3 µM (inactive)
same,IC50,[7],119 µM (inactive)
O=C1[C@@H]2Cc3c([nH]c4ccccc34)C(c3cccc([N+](=O)[O-])c3)N2C(=O)CN1C1CCN(Cc2ccccc2)CC1 (stereo partly drawn),IC50,[8],3.18 µM (active)
same,EC50,[9],1.8 µM (active)
same,IC50,[6],27.1 µM (inactive)
same,IC50,[7],1.82 µM (active)
same,EC50,[10],9.77 µM (active)
Cc1ccc(C(=O)c2oc3ccc(Cl)cc3c2NC(=O)CN2CCN(C)CC2)cc1,AC50,[11],11.5 µM (active)
same,AC50,[12],5.97 µM (active)
same,EC50,H4,> 120 µM (not active)
same,EC50,[13],> 120 µM (not active)
same,CC50,[14],14.2 µM (active)
same,EC50,[15],> 120 µM (not active)
same,AC50,[16],11.8 µM (active)
COc1cccc2c1cc1c(=O)n(CC(=O)N3CCC(C)CC3)nc(C)n12,EC50,[17],13.6 µM (inactive)
same,EC50,Mu-type opioid receptor,92.5 µM (inactive)
Cc1cc(C)cc(NC(=O)C(OC(=O)c2ccc(NC(=O)CC#N)cc2)c2ccccc2)c1 (stereo not drawn),IC50,[4],14.6 µM (active)
same,IC50,[5],22.3 µM (active)
O=C1NC[C@H](Cc2ccccc2)N(C[C@@H]2CCCN2C[C@H](Cc2ccccc2)N2C[C@H](Cc3ccc(O)cc3)N(CCc3ccccc3)C(=O)C2=O)C1=O,IC50,[4],6.91 µM (active)
same,IC50,[5],30.8 µM (active)
CCCN(CCC)CCNC(=O)c1cc2c(-c3ccc(Cl)cc3)nn(C)c2s1,AC50,[11],37.1 µM (active)
same,IC50,cells,15.5 µM (active)
same,CC50,[18],11.8 µM (active)
same,AC50,[12],14.5 µM (active)
same,CC50,[14],15.1 µM (active)
same,AC50,[19],3.81 µM (active)
same,EC50,[17],6.58 µM (active)
same,EC50,Mu-type opioid receptor,92.5 µM (inactive)
same,CC50,[20],16.6 µM (active)
same,AC50,[16],20.9 µM (active)
same,CC50,[21],31.6 µM (active)
